Holding throughout (assay type): cell-based
For one assay, the system named is Bacillus cereus IFO 3001. As to conditions: IFO 3001, 24 h. The procedure:
(§1) Gram-Positive Bacteria: • Staphylococcus aureus IFO 12732 • Staphylococcus aureus COL1 (MRSA) • Bacillus cereus IFO 3001 • Bacillus subtilis ATCC 6633 • Micrococcus luteus IFO 12708
(§2) That is, each sample was diluted with a liquid bouillon medium (mfd. by DIFCO, product name “NUTRIENT BROTH Dehydrated”) to a peptide concentration of 500, 250, 125, 62.5, 31.3, 15.6, 7.8, 3.9, 1.9, 1.0 or 0.5 […] and dispensed in 150 μl portions into a 96 well microplate. On the other hand, a cell suspension (about 2×10^6 cells/ml) prepared by statically culturing each strain at 37° C. for 18 hours in LB Broth, Lennox (mfd. by DIFCO) was inoculated into each well of the 96 well microplate in an amount equivalent to that of the drug solution (the aforementioned peptide-containing bouillon medium). After the inoculation, the culturing was started in an incubator of 37° C., and the presence of bacterial growth was examined based on the turbidity after 24 hours. The minimum peptide concentration by which increase in the turbidity due to bacterial growth was not observed at the time of the measurement was defined as the MIC in this Example.

Assay [1] has as its system Bacillus subtilis ATCC 6633. The note with it: ATCC 6633, 24 h. On the procedure: as §1, §2
Assay [2] deals with Micrococcus luteus IFO 12708. The note with it: IFO 12708, 24 h. The procedure: as §1, §2
In assay [3] the test system is Staphylococcus aureus COL1 (MRSA). The note with it: COL1, 24 h. The procedure: as §1, §2
The subject of assay [4] is Staphylococcus aureus IFO 12732. As to conditions: IFO 12732, 24 h. The procedure:
as §1, §2

The subject of assay [5] is Escherichia coli IFO 12713. As to conditions: IFO 12713, 24 h. On the procedure: (§3) Escherichia coli IFO 12713 • Escherichia coli 0157:H7 sakai • Klebsiella pneumoniae ATCC 4352 • Pseudomonas aeruginosa ATCC 10145
as §2

The test system of assay [6] is Klebsiella pneumoniae ATCC 4352. As to conditions: ATCC 4352, 24 h. The procedure: as §3, §2
Assay [7] relates to Salmonella enteritidis IFO 3313. The note with it: IFO 3313, 24 h. The procedure: as §2
Assay [8] deals with Pseudomonas aeruginosa ATCC 10145. The note with it: ATCC 10145, 24 h. On the procedure: as §3, §2

The text below walks through data of patent US7176276B2, “Antimicrobial peptide and use thereof” (Toagosei Co., Ltd., priority 2003, dated 2007).

Ends that are not written are not given here.

A word on the MIC: it is the least concentration at which growth counts as inhibited. Lower therefore signals inhibition by little substance. Consider “RRLLRKWWWKRLL-NH2 (C-terminus assumed) [Sample 2, RRLLRKWWWKRLL]”, for which the MIC against Bacillus cereus IFO 3001 was found to be 62.5 µg/mL; in [1] it was 1.95 µg/mL; in assay [2], 3.9 µg/mL; in [3], 15.6 µg/mL; in [4], 1.95 µg/mL; in assay [5], 7.8 µg/mL. Also, the MIC in [6] and in assay [7] was 3.9 µg/mL in each case.
In the case of “RLLRKWWWKRLL-NH2 (C-terminus assumed) [Sample 1, RLLRKWWWKRLL]”, the minimum inhibitory concentration (MIC) worked out at 62.5 µg/mL against Bacillus cereus IFO 3001; 1.95 µg/mL in assay [1]; 3.9 µg/mL in [2]; 1.95 µg/mL in assay [4]; 15.6 µg/mL in assay [5]; 7.8 µg/mL in assay [6]. For the same substance, the MIC in assay [8] was 15.6 µg/mL; in [7] it was 3.9 µg/mL.
Regarding “RRRLLRKWWWKRLL-NH2 (C-terminus assumed) [Sample 3, RRRLLRKWWWKRLL]”, the MIC in the assay on Bacillus cereus IFO 3001 is 62.5 µg/mL; in assay [1], 1.95 µg/mL; in [2] it was 7.8 µg/mL; in assay [4], 1.95 µg/mL; in [5], 15.6 µg/mL; in assay [6] it was 3.9 µg/mL. Further, the MIC in assay [8] stood at 15.6 µg/mL; in assay [7], 3.9 µg/mL.
As to “LLRKWWWKRLL-NH2 (C-terminus assumed) [compound 1, LLRKWWWKRLL, reference compound]”, the minimal inhibitory concentration (MIC) against Bacillus cereus IFO 3001 is 62.5 µg/mL; in assay [1], 0.98 µg/mL; in assay [2], 7.8 µg/mL; in [4], 1.95 µg/mL; in assay [7] it was 15.6 µg/mL.
